Test results as given in ChEMBL document CHEMBL3885861, “Open TG-GATES”.

Species on record: Rattus norvegicus
Test: Open TG-GATES - Regimen: Single
Format: toxicity, organism-based, Sprague-Dawley
Design: regimen Single, gender Male, age 6 weeks
Details: in vivo, po, 150 mg/kg, route gavage, dose level High; for APTT / Bas / Eos / Fbg / Hb / Ht / Lym / MCH / MCHC / MCV / Mono / Neu / PT / Plat / RBC / Ret / WBC: tissue Blood; for KIDNEY_L / KIDNEY_R / KIDNEY_TOTAL: tissue Kidney; for LIVER: tissue Liver; for A/G / ALP / ALT / AST / BUN / CRE / Ca / Cl / DBIL / GLC / IP / K / LDH / Na / PL / RALB / TBIL / TC / TG / TP / gamma-GTP: tissue Plasma

Nc1nc(N)c2nc(-c3ccccc3)c(N)nc2n1
TERMINAL_BW (3 h): 213.5 g
APTT (3 h): 17.4 s
Bas (3 h): 0.4%
Eos (3 h): 0.8%
Fbg (3 h): 303.6 mg/dL
Hb (3 h): 14.2 g/dL
Ht (3 h): 42.4%
Lym (3 h): 77.2%
MCH (3 h): 21.3 pg
MCHC (3 h): 33.4%
MCV (3 h): 63.7 fL
Mono (3 h): 3.2%
Neu (3 h): 17.6%
PT (3 h): 14 s
Plat (3 h): 128.5 x10_4/uL
RBC (3 h): 666 x10_4/ul
Ret (3 h): 7.5%
WBC (3 h): 118.9 x10_2/uL
KIDNEY_L (3 h): 1 g
KIDNEY_R (3 h): 1 g
KIDNEY_TOTAL (3 h): 2 g
LIVER (3 h): 9.5 g
A/G (3 h): 1
ALP (3 h): 1286.4 IU/L
ALT (3 h): 36.6 IU/L
AST (3 h): 71 IU/L
BUN (3 h): 12.8 mg/dL
CRE (3 h): 0.2 mg/dL
Ca (3 h): 10.8 mg/dL
Cl (3 h): 105.8 meq/L
DBIL (3 h): 0.01 mg/dL
GLC (3 h): 166.4 mg/dL
IP (3 h): 8.6 mg/dL
K (3 h): 5.2 meq/L
LDH (3 h): 56.2 IU/L
Na (3 h): 141 meq/L
PL (3 h): 142.6 mg/dL
RALB (3 h): 2.7 g/dL
TBIL (3 h): 0.06 mg/dL
TC (3 h): 77.6 mg/dL
TG (3 h): 67.2 mg/dL
TP (3 h): 5.5 g/dL
gamma-GTP (3 h): 1 IU/L
TERMINAL_BW (6 h): 206.9 g
APTT (6 h): 17.1 s
Bas (6 h): 0%
Eos (6 h): 1%
Fbg (6 h): 349 mg/dL
Hb (6 h): 14.4 g/dL
Ht (6 h): 43.7%
Lym (6 h): 74.4%
MCH (6 h): 20.9 pg
MCHC (6 h): 33%
MCV (6 h): 63.3 fL
Mono (6 h): 2.8%
Neu (6 h): 20.8%
PT (6 h): 13.9 s
Plat (6 h): 123.5 x10_4/uL
RBC (6 h): 690.6 x10_4/ul
Ret (6 h): 7.5%
WBC (6 h): 94.4 x10_2/uL
KIDNEY_L (6 h): 1 g
KIDNEY_R (6 h): 1 g
KIDNEY_TOTAL (6 h): 1.9 g
LIVER (6 h): 9.1 g
A/G (6 h): 1
ALP (6 h): 1417.8 IU/L
ALT (6 h): 37.8 IU/L
AST (6 h): 76.6 IU/L
BUN (6 h): 11.8 mg/dL
CRE (6 h): 0.2 mg/dL
Ca (6 h): 10.9 mg/dL
Cl (6 h): 105.8 meq/L
DBIL (6 h): 0.01 mg/dL
GLC (6 h): 169.6 mg/dL
IP (6 h): 9.4 mg/dL
K (6 h): 5.3 meq/L
LDH (6 h): 65.2 IU/L
Na (6 h): 140 meq/L
PL (6 h): 150.6 mg/dL
RALB (6 h): 2.8 g/dL
TBIL (6 h): 0.058 mg/dL
TC (6 h): 80.8 mg/dL
TG (6 h): 55.6 mg/dL
TP (6 h): 5.8 g/dL
gamma-GTP (6 h): 1 IU/L
TERMINAL_BW (9 h): 205.8 g
APTT (9 h): 17.3 s
Bas (9 h): 0.2%
Eos (9 h): 1%
Fbg (9 h): 347 mg/dL
Hb (9 h): 14.4 g/dL
Ht (9 h): 43.5%
Lym (9 h): 71.4%
MCH (9 h): 20.9 pg
MCHC (9 h): 33.1%
MCV (9 h): 63.1 fL
Mono (9 h): 2.2%
Neu (9 h): 25%
PT (9 h): 13.9 s
Plat (9 h): 118.6 x10_4/uL
RBC (9 h): 689.4 x10_4/ul
Ret (9 h): 7.6%
WBC (9 h): 77.8 x10_2/uL
KIDNEY_L (9 h): 1 g
KIDNEY_R (9 h): 1 g
KIDNEY_TOTAL (9 h): 2 g
LIVER (9 h): 8.3 g
A/G (9 h): 1
ALP (9 h): 1443.6 IU/L
ALT (9 h): 35.2 IU/L
AST (9 h): 73.4 IU/L
BUN (9 h): 12.6 mg/dL
CRE (9 h): 0.2 mg/dL
Ca (9 h): 11.1 mg/dL
Cl (9 h): 105.4 meq/L
DBIL (9 h): 0.01 mg/dL
GLC (9 h): 165.2 mg/dL
IP (9 h): 10.6 mg/dL
K (9 h): 5 meq/L
LDH (9 h): 57.8 IU/L
Na (9 h): 141.4 meq/L
PL (9 h): 139 mg/dL
RALB (9 h): 2.9 g/dL
TBIL (9 h): 0.066 mg/dL
TC (9 h): 79.4 mg/dL
TG (9 h): 30.2 mg/dL
TP (9 h): 5.9 g/dL
gamma-GTP (9 h): 1.2 IU/L
TERMINAL_BW (24 h): 222.9 g
APTT (24 h): 17.6 s
Bas (24 h): 0.2%
Eos (24 h): 0.8%
Fbg (24 h): 366.6 mg/dL
Hb (24 h): 14.4 g/dL
Ht (24 h): 42.7%
Lym (24 h): 80.8%
MCH (24 h): 21.7 pg
MCHC (24 h): 33.7%
MCV (24 h): 64.4 fL
Mono (24 h): 2.4%
Neu (24 h): 15.4%
PT (24 h): 13.7 s
Plat (24 h): 121.5 x10_4/uL
RBC (24 h): 662.8 x10_4/ul
Ret (24 h): 6.2%
WBC (24 h): 84.4 x10_2/uL
KIDNEY_L (24 h): 1 g
KIDNEY_R (24 h): 1 g
KIDNEY_TOTAL (24 h): 2 g
LIVER (24 h): 10.2 g
A/G (24 h): 0.9
ALP (24 h): 1697.4 IU/L
ALT (24 h): 43 IU/L
AST (24 h): 67.4 IU/L
BUN (24 h): 18 mg/dL
CRE (24 h): 0.2 mg/dL
Ca (24 h): 11.2 mg/dL
Cl (24 h): 106.2 meq/L
DBIL (24 h): 0.01 mg/dL
GLC (24 h): 175.4 mg/dL
IP (24 h): 8.4 mg/dL
K (24 h): 4.4 meq/L
LDH (24 h): 66.6 IU/L
Na (24 h): 143.8 meq/L
PL (24 h): 158 mg/dL
RALB (24 h): 2.7 g/dL
TBIL (24 h): 0.038 mg/dL
TC (24 h): 85.2 mg/dL
TG (24 h): 96.6 mg/dL
TP (24 h): 5.6 g/dL
gamma-GTP (24 h): 1 IU/L
